Here are results for two molecules from ChEMBL document CHEMBL1155727, “Prunioside A: a new terpene glycoside from Spiraea prunifolia” (J Nat Prod, 2001).

Structures are written as SMILES. Calls of active or inactive are those of the source. The calls are words filed in the database; no cut-off is given here.

Holding throughout (type): functional, cell-based
In test [1] the test system is RAW264.7. The experiment in a line: Antiinflammatory activity in LPS-stimulated mouse RAW264.7 cells assessed as inhibition of nitric oxide production at 200 ug/mL after 18 hrs by Griess reagent-based ELISA.
Test [2] relates to RAW264.7. The experiment in a line: Antiinflammatory activity in IFN-gamma-stimulated mouse RAW264.7 cells assessed as inhibition of nitric oxide production at 200 ug/mL after 18 hrs by Griess reagent-based ELISA. In general terms: Nitrite, measured by Griess reagent, commonly stands in for NO production.
Test [3] concerns RAW264.7. The experiment in a line: Antiinflammatory activity in IFN-gamma-stimulated mouse RAW264.7 cells assessed as inhibition of nitric oxide production after 18 hrs by Griess reagent-based ELISA.
Test [4] deals with RAW264.7. The experiment in a line: Antiinflammatory activity in LPS-stimulated mouse RAW264.7 cells assessed as inhibition of nitric oxide production after 18 hrs by Griess reagent-based ELISA.
For test [5], the system named is RAW264.7. As to the kind of experiment: Inhibition of iNOS mRNA expression in LPS-stimulated mouse RAW264.7 cells at 0.1 to 20 ug/mL by RT-PCR analysis.
The subject of test [6] is RAW264.7. The experiment in a line: Inhibition of iNOS mRNA expression in IFN-gamma-stimulated mouse RAW264.7 cells at 0.1 to 20 ug/mL by RT-PCR analysis.

`C=C(C)C(OC(=O)/C=C/c1ccc(O)cc1)C1C/C(=C/CO[C@@H]2O[C@H](CO)[C@@H](O)[C@H](O)[C@H]2O)C(=O)O1` (stereo partly specified): the inhibition result in the test with RAW264.7 [1] and with RAW264.7 [2] was “inactive” each time.

As to `C=C(C)C(OC(=O)/C=C/c1ccc(OC(C)=O)cc1)C1C/C(=C/CO[C@@H]2O[C@H](COC(C)=O)[C@@H](OC(C)=O)[C@H](OC(C)=O)[C@H]2OC(C)=O)C(=O)O1` (stereo partly specified), the inhibition entry in the test on RAW264.7 [3] and with RAW264.7 [4] was “Dose-dependent effect” in each case. Further, the inhibition entry in the test with RAW264.7 [5] and in the test on RAW264.7 [6] was “Active” throughout.
